{"source": "patent US9493420B2", "about": "“Quinoline derivatives and uses thereof” (Portland State University, priority 2005, dated 2016)", "biological_target": "T1, recombinant human dopamine (HEK-hDAT) transporter (Homo sapiens, UniProt Q01959)", "T1 construct": "expressed in transfected cells; host or cells: HEK cells expressing hDAT (HEK-hDAT)", "T1 sequence (Q01959 whole entry)": "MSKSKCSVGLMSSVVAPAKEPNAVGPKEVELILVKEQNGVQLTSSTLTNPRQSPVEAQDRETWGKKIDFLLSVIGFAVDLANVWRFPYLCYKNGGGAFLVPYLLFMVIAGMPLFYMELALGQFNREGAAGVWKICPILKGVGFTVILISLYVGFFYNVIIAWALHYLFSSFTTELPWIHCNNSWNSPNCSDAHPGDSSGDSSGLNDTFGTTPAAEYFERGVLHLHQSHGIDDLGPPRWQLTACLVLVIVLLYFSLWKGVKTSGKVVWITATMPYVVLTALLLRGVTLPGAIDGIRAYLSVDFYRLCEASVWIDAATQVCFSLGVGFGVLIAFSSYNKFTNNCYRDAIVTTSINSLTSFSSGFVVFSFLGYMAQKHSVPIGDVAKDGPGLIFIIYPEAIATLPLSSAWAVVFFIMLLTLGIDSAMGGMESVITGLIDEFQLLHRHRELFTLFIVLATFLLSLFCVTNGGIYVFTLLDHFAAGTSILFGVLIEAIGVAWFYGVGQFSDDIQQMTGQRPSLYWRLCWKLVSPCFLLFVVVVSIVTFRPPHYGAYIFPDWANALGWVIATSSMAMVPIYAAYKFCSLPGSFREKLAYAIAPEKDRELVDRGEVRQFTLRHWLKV", "experiment": "Inhibition of [3H]neurotransmitter uptake, hDAT", "type": "cell-based", "protocol": "Selected RCQs were tested for inhibition of [^3H]neurotransmitter uptake by the recombinant human serotonin (hSERT), dopamine (HEK-hDAT), and norepinephrine (hNET) transporters by a modification of the method of Eshleman et al. (J. Pharmacol. Exp. Ther., 289(2):877-885, 1999). HEK-hDAT, hSERT, and -hNET expressing cells were grown on tissue culture dishes. After removing the medium and washing the plates with Ca^2+-, Mg^2+-free phosphate buffered saline (PBS), fresh medium was added and the plates were placed in a 25° C. water bath for 5 minutes. Cells were gently lifted from the plates and cell clusters separated by trituration. 50 μL aliquots of the suspended cells were added to assay tubes containing drugs and Krebs-HEPES assay buffer in a final volume of 0.5 mL.\nCompetition experiments were conducted in triplicate. After a 10 minute preincubation period at 25° C., [^3H]neurotransmitter (20 nM final concentration; [^3H]DA, [^3H]5-HT, or [^3H]NE) were added, and the mixtures incubated for 10 minutes. Reactions were terminated by filtration through Wallac filtermat A filters (presoaked in 0.05% polyethylenimine), using a Tomtec cell harvester. Scintillation fluid was added to each filtered spot, and radioactivity remaining on the filters determined using a Wallac 1205 Betaplate scintillation counter.\nSpecific uptake was defined as the difference in uptake observed in the absence and presence of 5 μM mazindol (hDAT and hNET) or 5 μM imipramine (hSERT). Inhibition of uptake was determined by non-linear regression using Prism software.", "data": [{"smiles": "CN(CCCNc1ccnc2cc(Cl)ccc12)CCCN1c2ccccc2CCc2ccccc21", "note": "[RCQ_02, N′-(7-Chloro-quinolin-4-yl)-N-[3-(10,11-dihydro-dibenzo[b,f]azepin-5-yl)-propyl]-N-methyl-propane-1,3-diamine]", "values": [{"measurement": "IC50", "value": 2200, "unit": "nM"}]}]}
